Structures can show the parent of a compound that is named as a salt. Where two headings read alike, the source gives them in different places.
Assays:
mice = test: Toxicity: lethal dose in mice after intraperitoneal injection; format: in vivo; conditions: dose causing death in 2 out of 3 mice
[1] = biological target: T1, rat cortex histamine H1 receptor (Rattus norvegicus, UniProt P31390); test: Affinity towards the histamine H1 receptor ([3H]mepyramine competitive binding); conditions: cologarithm of Ki, mean ± deviation (n=2); [3H]mepyramine 4.5×10^−9 mole/l, rat cortex membranes
T1 construct: the samples containing 0.5 mg of cortex membrane protein; from tissue; host or cells: cerebral cortex membranes of male Sprague-Dawley rats
T1 sequence (P31390 whole entry): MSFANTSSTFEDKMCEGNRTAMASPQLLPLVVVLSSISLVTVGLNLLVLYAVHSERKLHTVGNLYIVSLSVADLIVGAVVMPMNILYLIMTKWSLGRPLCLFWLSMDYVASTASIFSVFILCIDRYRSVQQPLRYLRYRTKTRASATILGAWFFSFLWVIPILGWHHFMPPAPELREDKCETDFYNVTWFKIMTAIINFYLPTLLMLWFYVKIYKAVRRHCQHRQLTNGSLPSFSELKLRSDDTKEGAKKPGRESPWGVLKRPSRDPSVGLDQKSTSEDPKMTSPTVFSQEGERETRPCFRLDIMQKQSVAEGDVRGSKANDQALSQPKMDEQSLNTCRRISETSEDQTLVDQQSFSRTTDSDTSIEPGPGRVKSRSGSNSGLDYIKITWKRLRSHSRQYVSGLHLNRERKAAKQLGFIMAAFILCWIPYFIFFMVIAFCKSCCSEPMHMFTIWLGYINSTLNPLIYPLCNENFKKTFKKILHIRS
Procedure: Cerebral cortexes from male Sprague-Dawley rats are homogenized in 2 ml per cortex of a 20 mM Tris-HCl buffer (pH 7.4) containing 250 mM sucrose. The homogenates are centrifuged at 30,000 g for 30 minutes at 4° C. and the centrifugation pellets are resuspended in the same fresh buffer and preserved in liquid nitrogen. […] The bound [^3H]mepyramine is separated from the free radioligand by rapid filtration of the sample through a Whatman GF/C filter, previously impregnated for at least 2 hours with a 0.1% solution of polyethyleneimine, in order to reduce the possibility of non-specific binding of the radioligand with other proteins. […] The radioactivity thereof is then measured using a β particle Tri-carb 1090 scintillation counter (Camberra-Packard, Belgium). Non-specific binding has been estimated in the presence of a 10 μM aqueous solution of cetirizine and represents 30% of the total binding. […] DE LEAN et al., Mol. Pharmacol., 21 (1982), 5-16) and their inhibition constants (Ki) are calculated by means of the CHENG and PRUSOFF equation (Y. C. CHENG and W. H. PRUSOFF, Biochem. Pharmacol., 22 (1973), 3099-3108). Table III below gives the values of pKi (cologarithm of Ki) calculated from Ki (mean value±deviation with respect to the mean (n=2)), for the compounds tested.

[2] = test system: isolated guinea pig trachea; test: Peripheral antihistaminic properties: inhibition of histamine-induced contraction of isolated guinea pig trachea; conditions: mean ± standard deviation, histamine-contracted guinea pig trachea; for pA2: competitive inhibition; for pD2′: non-competitive inhibition
Procedure: Tracheas of Dunkin-Hartley guinea pigs of both sexes (weight: 250-500 g) are excised and cut into four fragments of three segments of cartilage each. These fragments are immersed in a Krebs-Heinseleit solution at 37° C. containing 10^−7 mole/l of atropine and 10^−5 mole/l of indomethacin and are stretched with a weight of 1 g. The solution is aerated with a current of oxygen containing 5% carbon dioxide. Each change in tension, is recorded with an isometric force indicator K 30 (from Hugo Sachs Elektronik) coupled to an amplifier and a Sanborn 7700 recorder (from Hewlett Packard). The preparation (i.e. trachea fragment) so obtained is allowed to stabilize for one hour during which the base line for the tension is readjusted if necessary.
After washing and stabilization, a cumulative curve showing the effects of histamine, as a function of its concentration (10^−6, 10^−5 and 10^−4 mole/l) is plotted as a control.
For the same preparation, four further cumulative curves showing the effects of histamine as a function of its concentration are then recorded at four increasing concentrations of each compound to be tested.
The compounds to be tested are incorporated in the medium five minutes before the histamine. Between each measurement, the preparations are washed at least four times with an interval of five minutes between each washing. Each compound is tested on at least 6 trachea fragments. When the last curve is plotted, additional concentrations of 3.2×10^−4 and 10^−3 mole/l of histamine are added in order to determine whether the antagonism is competitive or not.

[3] = test system: cutaneous reaction induced by histamine; test: Inhibition of the cutaneous reaction induced by histamine in dogs; format: in vivo, dog; conditions: for Area of wheals: nine Beagle dogs, mean ± SD; for Wheal area as percent of reference: with respect to reference area (100%); for inhibition at 0.15 mg/kg: Canis lupus familiaris
Procedure: The dog is considered, among the animal species, to be the species having a sensitivity to histamine relatively close to that of man.
In this test, nine Beagle dogs are used, having an average weight of 12.6 kg and of about two years of age and of which the abdomens have been locally shaved. 50 μl of a 0.9% aqueous solution of sodium chloride, containing 10 μg/ml of histamine, is injected intradermally into the shaved area. Simultaneously, a solution of Evans blue dye (60 mg/ml in a 0.9% aqueous solution of sodium chloride), is administered by intravenous injection to each dog at a dose of 0.1 ml/kg. An allergic reaction develops at the intradermal injection site and there appears a wheal, the area of which is measured exactly 30 minutes after the two injections. This area is taken as the reference. area (100%)
The compound to be tested is then administered orally, at a dose of 0.15 mg/kg (0.32×10^−6 mole/kg). 0.5, 1.5, 3, 6, 9, 12, 24 and 32 hours after administration of the compound to be tested, new wheals are induced at different abdominal locations by injecting histamine. Each time, the area of the induced wheal is measured 30 minutes after the injection of histamine.
The antihistaminic activity of a compound on the cutaneous allergic reaction is determined by measuring the reduction in the area of the induced wheals, following administration of the compound, with respect to the area of the reference wheal, and then expressed in percent.

[4] = 0.5 hours after 0.15 mg/kg oral
[5] = 1.5 hours after 0.15 mg/kg oral

Compound | Lethal dose (mice) [mol/kg] | Ki [1] [µM] | pA2 [2] | further results
Cc1cccc(CN2CCN(C(c3ccccc3)c3ccc(Cl)cc3)CC2)c1 (single isomer, unassigned) [C, levorotatory dihydrochloride of 1-[(4-chlorophenyl)phenylmethyl]-4-[(3-methylphenyl)methyl]piperazine] | >0.001 | 0.631 | – | –
Cc1cccc(CN2CCN(C(c3ccccc3)c3ccc(Cl)cc3)CC2)c1 (single isomer, unassigned) [D, dextrorotatory dihydrochloride of 1-[(4-chlorophenyl)phenylmethyl]-4-[(3-methylphenyl)methyl]piperazine] | >0.001 | 0.0631 | – | –
CC(C)(C)c1ccc(CN2CCN(C(c3ccccc3)c3ccc(Cl)cc3)CC2)cc1 (single isomer, unassigned) [E, levorotatory dihydrochloride of 1-[(4-tert-butylphenyl)methyl]-4-[(4-chlorophenyl)phenylmethyl]piperazine] | 0.001 | 1.26 | – | –
CC(C)(C)c1ccc(CN2CCN(C(c3ccccc3)c3ccc(Cl)cc3)CC2)cc1 (single isomer, unassigned) [F, dextrorotatory dihydrochloride of 1-[(4-tert-butylphenyl)methyl]-4-[(4-chlorophenyl)phenylmethyl]piperazine] | >0.001 | 0.631 | – | –
OCCOCCN1CCN(C(c2ccccc2)c2ccc(Cl)cc2)CC1 (single isomer, unassigned) [G, levorotatory dihydrochloride of 2-[2-[4-[(4-chlorophenyl)phenylmethyl]-1-piperazinyl]ethoxy]ethanol] | 0.0006 | 0.0251 | 6.5 ± 0.3 | –
OCCOCCN1CCN(C(c2ccccc2)c2ccc(Cl)cc2)CC1 (single isomer, unassigned) [H, dextrorotatory dihydrochloride of 2-[2-[4-[(4-chlorophenyl)phenylmethyl]-1-piperazinyl]ethoxy]ethanol] | 0.0006 | 0.002 | – | pD2′ [2]: 6.7 ± 0.1
OCCOCCOCCN1CCN(C(c2ccccc2)c2ccc(Cl)cc2)CC1 (single isomer, unassigned) [I, levorotatory dihydrochloride of 2-[2-[2-[4-[(4-chlorophenyl)phenylmethyl]-1-piperazinyl]ethoxy]ethoxy]ethanol] | 0.0001 | 0.0794 | 6.5 ± 0.4 | –
OCCOCCOCCN1CCN(C(c2ccccc2)c2ccc(Cl)cc2)CC1 (single isomer, unassigned) [J, dextrorotatory dihydrochloride of 2-[2-[2-[4-[(4-chlorophenyl)phenylmethyl]-1-piperazinyl]ethoxy]ethoxy]ethanol] | 0.0001 | 0.00251 | – | pD2′ [2]: 6.0 ± 0.3
COC(=O)COCCN1CCN(C(c2ccccc2)c2ccc(Cl)cc2)CC1 (single isomer, unassigned) [M, levorotatory dimaleate of methyl 2-[2-[4-[(4-chlorophenyl)phenylmethyl]-1-piperazinyl]ethoxy]acetate] | – | 0.00316 | – | –
COC(=O)COCCN1CCN(C(c2ccccc2)c2ccc(Cl)cc2)CC1 (single isomer, unassigned) [N, dextrorotatory dimaleate of methyl 2-[2-[4-[(4-chlorophenyl)phenylmethyl]-1-piperazinyl]ethoxy]acetate] | – | 0.0794 | – | –
O=C(O)COCCN1CCN(C(c2ccccc2)c2ccc(Cl)cc2)CC1 (single isomer, unassigned) [O, levorotatory dihydrochloride of 2-[2-[4-[(4-chlorophenyl)phenylmethyl]-1-piperazinyl]ethoxy]acetic acid] | – | 0.0398 | 6.6 ± 0.3 | –
O=C(O)COCCN1CCN(C(c2ccccc2)c2ccc(Cl)cc2)CC1 (single isomer, unassigned) [P, dextrorotatory dihydrochloride of 2-[2-[4-[(4-chlorophenyl)phenylmethyl]-1-piperazinyl]ethoxy]acetic acid] | – | 0.00631 | – | Area of wheals [3, 4]: 65 ± 10 mm^2; Wheal area as percent of reference [3, 4]: 85%; reduction in the area of the wheals ([3]; 30 minutes after administration, 0.15 mg/kg oral, dogs): 15%; Area of wheals [3, 5]: 44 ± 12 mm^2; Wheal area as percent of reference [3, 5]: 58%; Area of wheals ([3]; 3 hours after 0.15 mg/kg oral): 33 ± 10 mm^2; Wheal area as percent of reference ([3]; 3 hours after 0.15 mg/kg oral): 43%; Area of wheals ([3]; 6 hours after 0.15 mg/kg oral): 41 ± 13 mm^2; Wheal area as percent of reference ([3]; 6 hours after 0.15 mg/kg oral): 54%; Area of wheals ([3]; 9 hours after 0.15 mg/kg oral): 41 ± 10 mm^2; Wheal area as percent of reference ([3]; 9 hours after 0.15 mg/kg oral): 54%; Area of wheals ([3]; 12 hours after 0.15 mg/kg oral): 41 ± 10 mm^2; Wheal area as percent of reference ([3]; 12 hours after 0.15 mg/kg oral): 54%; Area of wheals ([3]; 24 hours after 0.15 mg/kg oral): 45 ± 5 mm^2; Wheal area as percent of reference ([3]; 24 hours after 0.15 mg/kg oral): 59%; Area of wheals ([3]; 32 hours after 0.15 mg/kg oral): 51 ± 5 mm^2; Wheal area as percent of reference ([3]; 32 hours after 0.15 mg/kg oral): 67%; inhibition at 0.15 mg/kg ([3]; 3 h, after three hours, 0.15 mg/kg oral, dogs, read-out: Maximum inhibition (of wheal area)): 57%; inhibition at 0.15 mg/kg ([3]; after 32 hours, 0.15 mg/kg oral, dogs, read-out: inhibition (of wheal area), statistically significant): 33%; pD2′ [2]: 6.3 ± 0.2
Clc1ccc(C(c2ccccc2)N2CCNCC2)cc1 (single isomer, unassigned; (+)) [B, (+)-1-[(4-chlorophenyl)phenylmethyl]piperazine] | – | – | 5.0 ± 0.1 | –
NC(=O)COCCN1CCN(C(c2ccccc2)c2ccc(Cl)cc2)CC1 (single isomer, unassigned; (+)) [Compound L, (+)-2-[2-[4-[(4-chlorophenyl)phenylmethyl]-1-piperazinyl]ethoxy]acetamide] | 0.001 | 0.158 | 6.4 ± 0.2 | –
Clc1ccc(C(c2ccccc2)N2CCNCC2)cc1 (single isomer, unassigned; (-)) [A, (−)-1-[(4-chlorophenyl)phenylmethyl]piperazine] | – | – | 5.7 ± 0.4 | –
NC(=O)COCCN1CCN(C(c2ccccc2)c2ccc(Cl)cc2)CC1 (single isomer, unassigned; (-)) [K, (−)-2-[2-[4-[(4-chlorophenyl)phenylmethyl]-1-piperazinyl]ethoxy]acetamide] | 0.0003 | 0.00251 | – | pD2′ [2]: 6.3 ± 0.2

From patent publication US6436942B1, “Enantiomers of 1[(4-chloro-phenyl) phenylmethyl]-4-[(4-methylphenyl) sulfony]piperazine” (UCB, S.A., priority 1993, dated 2002)
